Where two headings read alike, the source gives them in different places.
How the values were obtained:
[1] = target: T1, active BTK enzyme (Upstate 14-552) (Homo sapiens, UniProt Q06187); test: In Vitro BTK Kinase Assay: Btk-PolyGAT-LS Assay; assay type: biochemical; conditions: ATP 10 μM, polyGAT 100 nM, BTK 0.25 nM, 30 minutes, TRF readout
T1 construct: purchased Upstate 14-552
Procedure: In Vitro BTK Kinase Assay: Btk-PolyGAT-LS Assay The purpose of the BTK in vitro assay is to determine compound potency against BTK through the measurement of IC50. Compound inhibition is measured after monitoring the amount of phosphorylation of a fluorescein-labeled polyGAT peptide (Invitrogen PV3611) in the presence of active BTK enzyme (Upstate 14-552), ATP, and inhibitor. The BTK kinase reaction was done in a black 96 well plate (costar 3694). For a typical assay, a 24 μL aliquot of a ATP/peptide master mix (final concentration; ATP 10 μM, polyGAT 100 nM) in kinase buffer (10 mM Tris-HCl pH 7.5, 10 mM MgCl2, 200 μM […], 5 mM DTT, 0.01% Triton X-100, and 0.2 mg/ml casein) is added to each well. Next, […] of a 4-fold, 40× compound titration in 100% DMSO solvent is added, followed by adding 15 μL of BTK enzyme mix in 1× kinase buffer (with a final concentration of 0.25 nM). The assay is incubated for 30 minutes before being stopped with 28 μL of a 50 mM EDTA solution. Aliquots (5 μL) of the kinase reaction are transferred to a low volume white 384 well plate (Coming 3674), and 5 μL of a 2× detection buffer (Invitrogen PV3574, with 4 nM Tb-PY20 antibody, Invitrogen PV3552) is added. The plate is covered and incubated for 45 minutes at room temperature. Time resolved fluorescence (TRF) on Molecular Devices M5 (332 nm excitation; 488 nm emission; 518 nm fluorescein emission) is measured. IC50 values are calculated using a four parameter fit with 100% enzyme activity determined from the DMSO control and 0% activity from the EDTA control.

[2] = system: CD69 expression on CD19+ B cells in human whole blood; test: In Vitro whole blood CD69 Assay; assay type: cell-based; conditions: B-cell
Procedure: In Vitro whole blood CD69 Assay
Human heparinized venous blood from health donors was aliquoted into 96-well plate and “spiked” with serial dilutions of formula I compounds in DMSO or with DMSO without drug. The final concentration of DMSO in all wells was 0.1%. The plate was incubated at 37° C. for 30 min. Drug-containing samples were stimulated with […] mouse anti-human IgD-dextran (1A62) or […] polyclonal rabbit F(ab′)2 anti-human IgD. Phosphate-buffered saline (PBS) was added to the negative control unstimulated sample and the plates were incubated overnight (18 to 22 hours) at 37° C. Cells were stained with fluorochrome-conjugated anti-CD19 and anti-CD69 antibodies. Lyse/fix solution was used to remove red blood cells by hypotonic lysis and to fix the remaining cells, which were then analyzed by flow cytometry. CD19+ B cells were gated and analyzed for CD69 expression. The percentage of B cells expressing CD69 was plotted versus the log 10 of the concentration of the drug and the best-fit curves (variable Hill slope) were generated to obtain the IC50 value.

[3] = human heparinized whole blood, anti-human IgD stimulation overnight, percentage of CD19+ B cells expressing CD69, flow cytometry, read-out: IC50

T1 sequence (Q06187 whole entry): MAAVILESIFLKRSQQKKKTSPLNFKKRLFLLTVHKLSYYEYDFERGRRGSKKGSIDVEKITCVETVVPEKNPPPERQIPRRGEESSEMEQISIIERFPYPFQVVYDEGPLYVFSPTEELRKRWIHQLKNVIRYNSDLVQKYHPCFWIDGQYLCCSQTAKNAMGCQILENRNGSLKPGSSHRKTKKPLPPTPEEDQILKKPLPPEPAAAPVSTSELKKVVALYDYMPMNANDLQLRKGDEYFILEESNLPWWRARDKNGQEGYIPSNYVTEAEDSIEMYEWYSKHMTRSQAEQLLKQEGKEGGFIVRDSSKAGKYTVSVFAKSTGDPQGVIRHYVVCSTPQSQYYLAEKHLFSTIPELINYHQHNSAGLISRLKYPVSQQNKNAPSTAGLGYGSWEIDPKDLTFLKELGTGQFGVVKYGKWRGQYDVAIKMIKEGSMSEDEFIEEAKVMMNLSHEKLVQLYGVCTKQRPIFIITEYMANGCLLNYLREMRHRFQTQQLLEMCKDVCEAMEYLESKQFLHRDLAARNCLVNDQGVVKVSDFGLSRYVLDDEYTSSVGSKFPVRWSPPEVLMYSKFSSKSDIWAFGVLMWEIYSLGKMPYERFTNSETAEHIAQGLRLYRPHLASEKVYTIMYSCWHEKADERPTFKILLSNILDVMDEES

Question: C=CC(=O)N1CCC[C@H](c2cnccc2-c2ccc(CNC(=O)c3cn(C(C)(C)C)nn3)c(C)c2)C1 (single isomer, unassigned) [Example 24] was tested. Which IC50 [1] did it give?
Answer: Its IC50 is 1 to 10 nM.

Question: What about the IC50 [2, 3] of the same compound?
Answer: Its IC50 is greater than 1000 nM.

Question: With Cc1cc(-c2c(C#N)cncc2N2CCN(C(=O)/C=C/CN(C)C)CC2)ccc1CNC(=O)c1noc(C(C)(C)C)n1 [Example 69, (E)-5-(tert-butyl)-N-(4-(3-cyano-5-(4-(4-(dimethylamino)but-2-enoyl)piperazin-1-yl)pyridin-4-yl)-2-methylbenzyl)-1,2,4-oxadiazole-3-carboxamide] as the compound, how does the IC50 [1] read?
Answer: The IC50 was 1 to 10 nM.

Question: And the IC50 [2, 3]?
Answer: Its IC50 is 100 to 1000 nM.

Question: Which results are given for C=CC(=O)N(C)C1COCCN(c2cnccc2-c2ccc(CNC(=O)c3cn(C(C)(C)C)nn3)c(C)c2)C1 (stereo not shown) [Example 52, 1-(tert-butyl)-N-(2-methyl-4-(3-(6-(N-methylacrylamido)-1,4-oxazepan-4-yl)pyridin-4-yl)benzyl)-1H-1,2,3-triazole-4-carboxamide]?
Answer: IC50 [1]: 1 to 10 nM; IC50 [2, 3]: 100 to 1000 nM

Question: Which IC50 [1] does the source give for Cc1cc(-c2ccncc2N2CCN(C(=O)/C=C/CN(C)C)CC2)ccc1CNC(=O)c1nc(C2(CF)CC2)no1 [Example 94, (E)-N-(4-(3-(4-(4-(dimethylamino)but-2-enoyl)piperazin-1-yl)pyridin-4-yl)-2-methylbenzyl)-3-(1-(fluoromethyl)cyclopropyl)-1,2,4-oxadiazole-5-carboxamide] here?
Answer: The IC50 was no more than 1 nM.

Question: What about the IC50 [2, 3] of the same compound?
Answer: The IC50 was 100 to 1000 nM.

Question: What does the source list for C=CC(=O)N(C)C1CCCN(c2cnccc2-c2ccc(CNC(=O)c3ccc(C(F)(F)F)nc3)c(C)c2)C1 (stereo not shown) [Example 41, N-(2-methyl-4-(3-(3-(N-methylacrylamido)piperidin-1-yl)pyridin-4-yl)benzyl)-6-(trifluoromethyl)nicotinamide]?
Answer: IC50 [1]: 1 to 10 nM; IC50 [2, 3]: > 1000 nM

Question: With C=CC(=O)N1CCCC(c2cnccc2-c2ccc(CNC(=O)c3nc(C4(C)CC4)no3)c(C)c2)C1 (stereo not shown) [Example 29, N-(4-(3-(1-acryloylpiperidin-3-yl)pyridin-4-yl)-2-methylbenzyl)-3-(1-methylcyclopropyl)-1,2,4-oxadiazole-5-carboxamide] as the compound, how does the IC50 [1] read?
Answer: Its IC50 is 1 to 10 nM.

Question: And the IC50 [2, 3]?
Answer: The IC50 was greater than 1000 nM.

Question: With C=CC(=O)N(C)C1CCCN(c2cnccc2-c2ccc(CNC(=O)c3cc(C(C)(C)C)on3)c(C)c2)C1 (stereo not shown) [Example 14, 5-(tert-butyl)-N-(2-methyl-4-(3-(3-(N-methylacrylamido)piperidin-1-yl)pyridin-4-yl)benzyl)isoxazole-3-carboxamide] as the compound, how does the IC50 [1] read?
Answer: Its IC50 is no more than 1 nM.

Question: And the IC50 [2, 3]?
Answer: The IC50 was 100 to 1000 nM.

Question: How did the IC50 [1] turn out when C=CC(=O)N(C)[C@@H]1CCCN(c2cnccc2-c2ccc(CNC(=O)c3cn(C(C)(C)C)nn3)c(C)c2)C1 [Example 22, (R)-1-(tert-butyl)-N-(2-methyl-4-(3-(3-(N-methylacrylamido)piperidin-1-yl)pyridin-4-yl)benzyl)-1H-1,2,3-triazole-4-carboxamide] was run?
Answer: The IC50 was no more than 1 nM.

Question: What about the IC50 [2, 3] of the same compound?
Answer: The IC50 was less than 100 nM.

Question: Which results are given for C=CC(=O)N(C)C1CCCN(c2cnccc2-c2ccc(CNC(=O)c3nc(C(C)(C)C)no3)c(C)c2)C1 (stereo not shown) [Example 13, 3-(tert-butyl)-N-(2-methyl-4-(3-(3-(N-methylacrylamido)piperidin-1-yl)pyridin-4-yl)benzyl)-1,2,4-oxadiazole-5-carboxamide]?
Answer: IC50 [1]: ≤ 1 nM; IC50 [2, 3]: < 100 nM

Question: With C=CC(=O)N1CCC(c2cnccc2-c2ccc(CNC(=O)c3noc(C(C)(C)C)n3)c(C)c2)CC1 [Example 35, N-(4-(3-(1-acryloylpiperidin-4-yl)pyridin-4-yl)-2-methylbenzyl)-5-(tert-butyl)-1,2,4-oxadiazole-3-carboxamide] as the compound, how does the IC50 [1] read?
Answer: Its IC50 is 1 to 10 nM.

Question: And the IC50 [2, 3]?
Answer: The IC50 was 100 to 1000 nM.

Question: Which results are given for C=CC(=O)N1CCCC12CCN(c1cnccc1-c1ccc(CNC(=O)c3cn(C(C)(C)C)nn3)c(C)c1)C2 (stereo not shown) [Example 3, N-(4-(3-(1-acryloyl-1,7-diazaspiro[4.4]nonan-7-yl)pyridin-4-yl)-2-methylbenzyl)-1-(tert-butyl)-1H-1,2,3-triazole-4-carboxamide]?
Answer: IC50 [1]: 1 to 10 nM; IC50 [2, 3]: > 1000 nM

Question: Which IC50 [1] does the source give for C=CC(=O)N(C)[C@@H]1CCCCN(c2cnccc2-c2ccc(CNC(=O)c3cn(C(C)(C)C)nn3)c(C)c2)C1 [Example 51, (R)-1-(tert-butyl)-N-(2-methyl-4-(3-(3-(N-methylacrylamido)azepan-1-yl)pyridin-4-yl)benzyl)-1H-1,2,3-triazole-4-carboxamide] here?
Answer: Its IC50 is no more than 1 nM.

Question: And the IC50 [2, 3]?
Answer: The IC50 was greater than 1000 nM.

Question: With Cc1cc(-c2ccncc2N2CCN(C(=O)/C=C/CN(C)C)CC2)ccc1[C@@H](C)NC(=O)c1noc(C(C)(C)C)n1 [Example 86, (R,E)-5-(tert-butyl)-N-(1-(4-(3-(4-(4-(dimethylamino)but-2-enoyl)piperazin-1-yl)pyridin-4-yl)-2-methylphenyl)ethyl)-1,2,4-oxadiazole-3-carboxamide] as the compound, how does the IC50 [1] read?
Answer: The IC50 was 1 to 10 nM.

Question: What about the IC50 [2, 3] of the same compound?
Answer: Its IC50 is 100 to 1000 nM.

Question: What does the source list for C=CC(=O)N1CCC[C@H](c2cnccc2-c2ccc(CNC(=O)c3nc(C4(C)CC4)no3)c(C)c2)C1 (single isomer, unassigned) [Example 30]?
Answer: IC50 [1]: 1 to 10 nM; IC50 [2, 3]: > 1000 nM

Question: What does the source list for Cc1cc(-c2ncncc2N2CCN(C(=O)/C=C/CN(C)C)CC2)ccc1CNC(=O)c1nc(C2(C)CC2)no1 [Example 85, (E)-N-(4-(5-(4-(4-(dimethylamino)but-2-enoyl)piperazin-1-yl)pyrimidin-4-yl)-2-methylbenzyl)-3-(1-methylcyclopropyl)-1,2,4-oxadiazole-5-carboxamide]?
Answer: IC50 [1]: ≤ 1 nM; IC50 [2, 3]: < 100 nM

Question: For C=CC(=O)N(C)C1CCCN(c2cnccc2-c2ccc(CNC(=O)c3nc(C(C)(C)C)no3)c(C)c2F)C1 (stereo not shown) [Example 18, 3-(tert-butyl)-N-(3-fluoro-2-methyl-4-(3-(3-(N-methylacrylamido)piperidin-1-yl)pyridin-4-yl)benzyl)-1,2,4-oxadiazole-5-carboxamide], which IC50 [1] is on record?
Answer: The IC50 was no more than 1 nM.

Question: What about the IC50 [2, 3] of the same compound?
Answer: Its IC50 is 100 to 1000 nM.

Question: With C=CC(=O)N1CCCC(c2cnccc2-c2ccc(CNC(=O)c3cn(C(C)(C)C)nn3)c(C)c2)C1 (stereo not shown) [Example 23, N-(4-(3-(1-acryloylpiperidin-3-yl)pyridin-4-yl)-2-methylbenzyl)-1-(tert-butyl)-1H-1,2,3-triazole-4-carboxamide] as the compound, how does the IC50 [1] read?
Answer: The IC50 was 1 to 10 nM.

Question: And the IC50 [2, 3]?
Answer: Its IC50 is greater than 1000 nM.

Question: With C=CC(=O)N(C)[C@H]1CCC(=O)N(c2cnccc2-c2ccc(CNC(=O)c3nnn(C(C)(C)C)n3)c(C)c2)C1 (single isomer, unassigned) [Example 53 Peak 1] as the compound, how does the IC50 [1] read?
Answer: Its IC50 is 1 to 10 nM.

Question: And the IC50 [2, 3]?
Answer: The IC50 was greater than 1000 nM.

Question: With C=CC(=O)N1CCCC(c2cnccc2-c2ccc(CNC(=O)c3cc(C(C)(C)C)on3)c(C)c2)C1 (stereo not shown) [Example 32, N-(4-(3-(1-acryloylpiperidin-3-yl)pyridin-4-yl)-2-methylbenzyl)-5-(tert-butyl)isoxazole-3-carboxamide] as the compound, how does the IC50 [1] read?
Answer: Its IC50 is 1 to 10 nM.

Question: What about the IC50 [2, 3] of the same compound?
Answer: Its IC50 is 100 to 1000 nM.

Question: Which IC50 [1] does the source give for Cc1cc(-c2ncncc2N2CCN(C(=O)/C=C/CN(C)C)CC2)ccc1CNC(=O)c1noc(C(C)(C)C)n1 [Example 82, (E)-5-(tert-butyl)-N-(4-(5-(4-(4-(dimethylamino)but-2-enoyl)piperazin-1-yl)pyrimidin-4-yl)-2-methylbenzyl)-1,2,4-oxadiazole-3-carboxamide] here?
Answer: The IC50 was no more than 1 nM.

Question: And the IC50 [2, 3]?
Answer: Its IC50 is less than 100 nM.

Question: What does the source list for C=CC(=O)N(C)C1CCCN(c2cnccc2-c2ccc(CNC(=O)c3nc(C(C)(C)C)co3)c(C)c2)C1 (stereo not shown) [Example 39, 4-(tert-butyl)-N-(2-methyl-4-(3-(3-(N-methylacrylamido)piperidin-1-yl)pyridin-4-yl)benzyl)oxazole-2-carboxamide]?
Answer: IC50 [1]: ≤ 1 nM; IC50 ([2]; Homo sapiens): 100 to 1000 nM

Question: Which results are given for C=CC(=O)N1CCCC(c2cnccc2-c2ccc(CNC(=O)c3noc(C4(C)CC4)n3)c(C)c2)C1 (stereo not shown) [Example 26, N-(4-(3-(1-acryloylpiperidin-3-yl)pyridin-4-yl)-2-methylbenzyl)-5-(1-methylcyclopropyl)-1,2,4-oxadiazole-3-carboxamide]?
Answer: IC50 [1]: 1 to 10 nM; IC50 [2, 3]: 100 to 1000 nM

Question: For C=CC(=O)N(C)C1CCCN(c2cnccc2-c2ccc(CNC(=O)c3cnn(C(C)(C)C)c3)c(C)c2)C1 (stereo not shown) [Example 42, 1-(tert-butyl)-N-(2-methyl-4-(3-(3-(N-methylacrylamido)piperidin-1-yl)pyridin-4-yl)benzyl)-1H-pyrazole-4-carboxamide], which IC50 [1] is on record?
Answer: Its IC50 is no more than 1 nM.

Question: And the IC50 [2, 3]?
Answer: The IC50 was 100 to 1000 nM.
